Measured values reported in PMC11005723, “Development of Complementary Photo‐arginine/lysine to Promote Discovery of Arg/Lys hPTMs Interactomes” (Advanced Science, 2024).

Tested on: HEK293T nuclear lysates
Assay: SILAC‐based pull‐down proteomics H4K5me2/H4K5 (probes 7/5)
Format: binding, human
Settings: for E6 log2 (H4K5me2/H4K5): run E6; for F6 log2 (H4K5me2/H4K5): run F6

probe 7: H4K5me2 peptide probe with photo‐arginine R(dz) and K(biotin) (SGRGKGGKGLGKGGK; photo-arginine R(dz) at 3; dimethyl-lysine at 5; K(biotin) at 15)
proteins recruited (SILAC proteomics H4K5me2/H4K5) (365 nm UV 30 min, streptavidin enrichment, n = 2): could recruit L3MBTL2
E6 log2 (H4K5me2/H4K5) (protein A0A0U1RR22 PACSIN2): 0.1208
F6 log2 (H4K5me2/H4K5) (protein A0A0U1RR22 PACSIN2): -0.1109
E6 log2 (H4K5me2/H4K5) (protein A0A2R8Y855 SMARCE1): 0.07695
F6 log2 (H4K5me2/H4K5) (protein A0A2R8Y855 SMARCE1): 0.03141
E6 log2 (H4K5me2/H4K5) (protein A0A087WY61 NUMA1): 0.1401
F6 log2 (H4K5me2/H4K5) (protein A0A087WY61 NUMA1): 0.3015
E6 log2 (H4K5me2/H4K5) (protein A6NLN1 PTBP1): 0.07938
F6 log2 (H4K5me2/H4K5) (protein A6NLN1 PTBP1): -0.02591
E6 log2 (H4K5me2/H4K5) (protein B4DY09 ILF2): 0.08111
F6 log2 (H4K5me2/H4K5) (protein B4DY09 ILF2): 0.1752
E6 log2 (H4K5me2/H4K5) (protein B5MCF9 PES1): 0.1415
F6 log2 (H4K5me2/H4K5) (protein B5MCF9 PES1): 0.1164
E6 log2 (H4K5me2/H4K5) (protein E7ETZ4 BZW2): 0.1449
F6 log2 (H4K5me2/H4K5) (protein E7ETZ4 BZW2): -0.03577
E6 log2 (H4K5me2/H4K5) (protein E9PKG1 PRMT1): 0.1534
F6 log2 (H4K5me2/H4K5) (protein E9PKG1 PRMT1): 0.23
E6 log2 (H4K5me2/H4K5) (protein H7C3T4 PRDX4): 0.1102
F6 log2 (H4K5me2/H4K5) (protein H7C3T4 PRDX4): 0.1589
E6 log2 (H4K5me2/H4K5) (protein J3QR09 RPL19): 0.1467
F6 log2 (H4K5me2/H4K5) (protein J3QR09 RPL19): -0.9956
E6 log2 (H4K5me2/H4K5) (protein M0R3F6 SUGP2): 0.09539
F6 log2 (H4K5me2/H4K5) (protein M0R3F6 SUGP2): 0.1115
E6 log2 (H4K5me2/H4K5) (protein O00567 NOP56): 0.1426
F6 log2 (H4K5me2/H4K5) (protein O00567 NOP56): -0.1862
E6 log2 (H4K5me2/H4K5) (protein O14654 IRS4): 0.1705
F6 log2 (H4K5me2/H4K5) (protein O14654 IRS4): -0.09217
E6 log2 (H4K5me2/H4K5) (protein O14980 XPO1): 0.1332
F6 log2 (H4K5me2/H4K5) (protein O14980 XPO1): 0.2789
E6 log2 (H4K5me2/H4K5) (protein O43663 PRC1): 0.1243
F6 log2 (H4K5me2/H4K5) (protein O43663 PRC1): 0.05206
E6 log2 (H4K5me2/H4K5) (protein O43670 ZNF207): 0.07954
F6 log2 (H4K5me2/H4K5) (protein O43670 ZNF207): 0.2082
E6 log2 (H4K5me2/H4K5) (protein O60216 RAD21): 0.09859
F6 log2 (H4K5me2/H4K5) (protein O60216 RAD21): -0.00427
E6 log2 (H4K5me2/H4K5) (protein O60264 SMARCA5): 0.1187
F6 log2 (H4K5me2/H4K5) (protein O60264 SMARCA5): 0.0006909
E6 log2 (H4K5me2/H4K5) (protein O75717 WDHD1): 0.1724
F6 log2 (H4K5me2/H4K5) (protein O75717 WDHD1): 0.09518
E6 log2 (H4K5me2/H4K5) (protein O95218 ZRANB2): 0.07138
F6 log2 (H4K5me2/H4K5) (protein O95218 ZRANB2): 0.02934
E6 log2 (H4K5me2/H4K5) (protein O95239 KIF4A): 0.09061
F6 log2 (H4K5me2/H4K5) (protein O95239 KIF4A): 0.09527
E6 log2 (H4K5me2/H4K5) (protein P04843 RPN1): 0.0606
F6 log2 (H4K5me2/H4K5) (protein P04843 RPN1): -0.2414
E6 log2 (H4K5me2/H4K5) (protein P08107 HSPA1A): 0.1665
F6 log2 (H4K5me2/H4K5) (protein P08107 HSPA1A): 0.1744
E6 log2 (H4K5me2/H4K5) (protein P11387 TOP1): 0.0619
F6 log2 (H4K5me2/H4K5) (protein P11387 TOP1): 0.02763
E6 log2 (H4K5me2/H4K5) (protein P12081 HARS): 0.08516
F6 log2 (H4K5me2/H4K5) (protein P12081 HARS): -0.01799
E6 log2 (H4K5me2/H4K5) (protein P13010 XRCC5): 0.1114
F6 log2 (H4K5me2/H4K5) (protein P13010 XRCC5): 0.1089
E6 log2 (H4K5me2/H4K5) (protein P17028 ZNF24): 0.05262
F6 log2 (H4K5me2/H4K5) (protein P17028 ZNF24): 0.1336
E6 log2 (H4K5me2/H4K5) (protein P22314 UBA1): 0.1022
F6 log2 (H4K5me2/H4K5) (protein P22314 UBA1): 0.2143
E6 log2 (H4K5me2/H4K5) (protein P26358 DNMT1): 0.1405
F6 log2 (H4K5me2/H4K5) (protein P26358 DNMT1): 0.2161
E6 log2 (H4K5me2/H4K5) (protein P26641 EEF1G): 0.08126
F6 log2 (H4K5me2/H4K5) (protein P26641 EEF1G): 0.1297
E6 log2 (H4K5me2/H4K5) (protein P29692 EEF1D): 0.1014
F6 log2 (H4K5me2/H4K5) (protein P29692 EEF1D): -0.2527
E6 log2 (H4K5me2/H4K5) (protein P31689 DNAJA1): 0.1011
F6 log2 (H4K5me2/H4K5) (protein P31689 DNAJA1): 0.04124
E6 log2 (H4K5me2/H4K5) (protein P46109 CRKL): 0.0665
F6 log2 (H4K5me2/H4K5) (protein P46109 CRKL): -0.05223
E6 log2 (H4K5me2/H4K5) (protein P49411 TUFM): 0.1754
F6 log2 (H4K5me2/H4K5) (protein P49411 TUFM): 0.2878
E6 log2 (H4K5me2/H4K5) (protein P49792 RANBP2): 0.07412
F6 log2 (H4K5me2/H4K5) (protein P49792 RANBP2): 0.1736
E6 log2 (H4K5me2/H4K5) (protein P49915 GMPS): 0.05379
F6 log2 (H4K5me2/H4K5) (protein P49915 GMPS): 0.04262
E6 log2 (H4K5me2/H4K5) (protein P51991 HNRNPA3): 0.1036
F6 log2 (H4K5me2/H4K5) (protein P51991 HNRNPA3): 0.2517
E6 log2 (H4K5me2/H4K5) (protein P52272 HNRNPM): 0.1368
F6 log2 (H4K5me2/H4K5) (protein P52272 HNRNPM): 0.1164
E6 log2 (H4K5me2/H4K5) (protein P52597 HNRNPF): 0.1056
F6 log2 (H4K5me2/H4K5) (protein P52597 HNRNPF): 0.253
E6 log2 (H4K5me2/H4K5) (protein P52948 NUP98): 0.08442
F6 log2 (H4K5me2/H4K5) (protein P52948 NUP98): -0.03692
E6 log2 (H4K5me2/H4K5) (protein P55072 VCP): 0.1596
F6 log2 (H4K5me2/H4K5) (protein P55072 VCP): 0.3874
E6 log2 (H4K5me2/H4K5) (protein P62258 YWHAE): 0.1303
F6 log2 (H4K5me2/H4K5) (protein P62258 YWHAE): -0.03753
E6 log2 (H4K5me2/H4K5) (protein P62979 RPS27A): 0.1537
F6 log2 (H4K5me2/H4K5) (protein P62979 RPS27A): -0.5244
E6 log2 (H4K5me2/H4K5) (protein P63167 DYNLL1): 0.05641
F6 log2 (H4K5me2/H4K5) (protein P63167 DYNLL1): 0.2614
E6 log2 (H4K5me2/H4K5) (protein P67870 CSNK2B): 0.1418
F6 log2 (H4K5me2/H4K5) (protein P67870 CSNK2B): -0.3988
E6 log2 (H4K5me2/H4K5) (protein P78347 GTF2I): 0.1733
F6 log2 (H4K5me2/H4K5) (protein P78347 GTF2I): 0.08348
E6 log2 (H4K5me2/H4K5) (protein P78371 CCT2): 0.07998
F6 log2 (H4K5me2/H4K5) (protein P78371 CCT2): 0.282
E6 log2 (H4K5me2/H4K5) (protein P84103 SRSF3): 0.08043
F6 log2 (H4K5me2/H4K5) (protein P84103 SRSF3): -0.102
E6 log2 (H4K5me2/H4K5) (protein P85037 FOXK1): 0.1575
F6 log2 (H4K5me2/H4K5) (protein P85037 FOXK1): -0.07311
E6 log2 (H4K5me2/H4K5) (protein Q5SY16 NOL9): 0.1325
